Experimental data from PMC9455983 (International Journal of Molecular Sciences, 2022).
Values joined by “and” are separate entries in the source; they are usually repeats but may differ in a detail not shown here. Identical values can stand only once. Like-named read-outs stand apart in the source and are kept apart here.

Tests used:
[1] = molecular target: T1, kappa-opioid receptor (KOR) (Cavia porcellus, UniProt P41144); assay: KOR radioligand competition binding assay ([3H]U69,593); design: species or system guinea pig; conditions: Kappa screening results
T1 construct: Guinea pig cortices and cerebella were homogenized using 50 mM Tris, pH 7.4; from tissue; host or cells: guinea pig cortex and cerebellum membranes
Protocol: KOR binding assay: Guinea pig cortices and cerebella were homogenized using 50 mM Tris, pH 7.4, 10 mM MgCl2-6H2O, […] centrifuged and incubated as above. Each assay tube contained 2 nM [^3H]U69,593. Assay tubes were incubated for 2 h at 25 °C. Unlabeled U50,488 was used as a competitor to generate a standard curve and determine nonspecific binding.
(§1) All three binding assays were terminated by filtration through GF/B filters, soaked in 5 mg/mL bovine serum albumin, 50 mM Tris, pH 7.4, on a Tomtec Mach II Harvester 96. The filters were subsequently washed with 6 mL of assay buffer. Bound radioactivity was counted on a Wallac Betaplate Liquid Scintillation Counter. Experiments were conducted using two replicates and repeated twice. Values in Scheme 2 represent the mean ± SD of two experiments with two replicates in each test.

mu-opioid receptor (MOR) = molecular target: T2, mu-opioid receptor (MOR) (Rattus norvegicus, UniProt P33535); assay: MOR radioligand competition binding assay ([3H]-DAMGO); conditions: Mu screening results
T2 construct: Rat cortices were homogenized using 50 mM Tris, pH 7.4, and centrifuged at 16,500 rpm for 10 min; from tissue; host or cells: rat cortex membranes
Protocol: MOR binding assay: Rat cortices were homogenized using 50 mM Tris, pH 7.4, and centrifuged at 16,500 rpm for 10 min. The pellets were resuspended in fresh buffer and incubated at 37 °C for 30 min. Following incubation, the suspensions were centrifuged as before, the resulting pellets were resuspended in 100 volumes of 50 mM Tris, pH 7.4 plus 2 mg/mL bovine serum and the suspensions combined. Each assay tube contained 0.5 mL of membrane suspension, 2 nM [^3H]-DAMGO, and 0.02 mg/mL mixture in a total volume of 0.65 mL [13, 45, 53, 55].
as §1

[2] = molecular target: T3, delta-opioid receptor (DOR) (Rattus norvegicus, UniProt P33533); assay: DOR radioligand competition binding assay ([3H]-DPDPE); conditions: Delta screening results
T3 construct: Rat cortices were homogenized using 50 mM Tris, pH 7.4, 10 mM MgCl2-6H2O, 200 µM PMSF; from tissue; host or cells: rat cortex membranes
Protocol: DOR binding assay: Rat cortices were homogenized using 50 mM Tris, pH 7.4, 10 mM MgCl2-6H2O, 200 µM PMSF, centrifuged and incubated as above. Each assay tube contained 2 nM [^3H]-DPDPE. Assay tubes were incubated for 2.5 h at 25 °C. Unlabeled DPDPE was used as a competitor to generate a standard curve and determine nonspecific binding.
as §1

[3] = experiment 1, unit inferred, read-out: Ki (Exp 1)
[4] = experiment 2, unit inferred, read-out: Ki (Exp 2)
[5] = mean of Exp 1 and Exp 2, unit inferred, read-out: MEAN (Ki)
[6] = mean of two experiments, read-out: Ki
[7] = first Ki column, unit not printed (apparently M), read-out: Ki (first column)
[8] = mean of both Ki, unit inferred, read-out: MEAN (Ki)
[9] = second Ki column, unit not printed (apparently M), read-out: Ki (second column)

SMILES	Ki [1, 3]	Ki [1, 4]	Ki [1, 5]	Ki [1, 6]	Ki (mu-opioid receptor (MOR); [3])	Ki (mu-opioid receptor (MOR); [4])	Ki (mu-opioid receptor (MOR); [5])	Ki (mu-opioid receptor (MOR); [6])	Ki [2, 7]	Ki [2, 8]	Ki [2, 6]	Ki [2, 9]
Cc1cc(O)cc(C)c1C[C@H]1CNC(=N)N1C[C@H](Cc1ccc(O)cc1)N1C[C@H](CC(C)C)NC1=N [1968-71]	373 nM	386 nM	380 nM	380 nM	58 nM	53 nM	55.5 nM	56 nM	3.83 µM	3.43 µM	3.43 µM	3.02 µM
N=C1NC[C@H](Cc2ccccc2)N1C[C@H](Cc1ccc(O)cc1)N1C[C@H](Cc2ccccc2)NC1=N [1968-5]	3950 nM	3730 nM	3840 nM	3840 nM	925 nM	671 nM	798 nM	798 nM	6.4 µM	9.23 µM	9.23 µM	12.1 µM
N=C1NC[C@H](Cc2ccc(O)cc2)N1C[C@H](Cc1ccc(O)cc1)N1C[C@H](Cc2ccc(O)cc2)NC1=N [1968-70]	11100 nM	5550 nM	8320 nM	8320 nM	230 nM	282 nM	256 nM	256 nM	9.96 µM	10.8 µM	10.8 µM	11.7 µM
Cc1cc(O)cc(C)c1C[C@H]1CN([C@@H](Cc2ccccc2)CN2C(=N)NC[C@@H]2C)C(=N)N1 [1968-36]	1030 nM	1320 nM	1170 nM	1170 nM	167 nM	124 nM	146 nM	146 nM	3.71 µM	3.55 µM	3.55 µM	3.4 µM
CC(C)C[C@@H](CN1C(=N)NC[C@@H]1Cc1ccc(O)cc1)N1C[C@H](Cc2ccc(O)cc2)NC1=N [1968-26]	15800 nM	13200 nM	14500 nM	14500 nM	781 nM	751 nM	766 nM	766 nM	7.48 µM	8.07 µM	8.07 µM	8.67 µM
Cc1cc(O)cc(C)c1C[C@H]1CN([C@@H](Cc2ccc(O)cc2)CN2C(=N)NC[C@@H]2C)C(=N)N1 [1968-40]	235 nM	263 nM	249 nM	249 nM	36.4 nM	48.8 nM	42.6 nM	43 nM	1.52 µM	1.42 µM	1.42 µM	1.32 µM
CC(C)C[C@@H](CN1C(=N)NC[C@@H]1C)N1C[C@H](Cc2ccccc2)NC1=N [1968-41]	23900 nM	22000 nM	23000 nM	23000 nM	5620 nM	7390 nM	6510 nM	6510 nM	7.31 µM			
Cc1cc(O)cc(C)c1C[C@H]1CNC(=N)N1C[C@H](CC(C)C)N1C[C@H](Cc2ccccc2)NC1=N [1968-57]	371 nM	679 nM	525 nM	525 nM	59.6 nM	74.1 nM	66.8 nM	67 nM	1.4 µM	1.24 µM	1.24 µM	1.07 µM
Cc1cc(O)cc(C)c1C[C@H]1CNC(=N)N1C[C@H](Cc1ccc(O)cc1)N1C[C@H](Cc2ccc(O)cc2)NC1=N [1968-54]	1460 nM	1600 nM	1530 nM	1530 nM	72.3 nM	56.4 nM	64.3 nM	64 nM	3.55 µM	3.28 µM	3.28 µM	3.01 µM
CC(C)C[C@@H](CN1C(=N)NC[C@@H]1Cc1ccccc1)N1C[C@H](Cc2ccccc2)NC1=N [1968-9]	11400 nM	10900 nM	11100 nM	11100 nM	848 nM	955 nM	901 nM	901 nM	9.83 µM	7.82 µM	7.82 µM	5.81 µM
Cc1cc(O)cc(C)c1C[C@@H](CN1C(=N)NC[C@@H]1C)N1C[C@H](CC(C)C)NC1=N [1968-19]	89.3 nM	43.8 nM	66.5 nM	66.5 nM and 66 nM	15.9 nM	14.2 nM	15 nM	15 nM	1.18 µM	1.09 µM	1.1 µM	1.01 µM
N=C1NC[C@H](Cc2ccccc2)N1C[C@H](Cc1ccccc1)N1C[C@H](Cc2ccccc2)NC1=N [1968-65]	16600 nM	15200 nM	15900 nM	15900 nM	2370 nM	2830 nM	2600 nM	2600 nM	7.34 µM	7.32 µM	7.32 µM	7.29 µM
CC(C)C[C@H]1CN([C@@H](Cc2ccccc2)CN2C(=N)NC[C@@H]2Cc2ccc(O)cc2)C(=N)N1 [1968-69]	2120 nM	2130 nM	2120 nM	2120 nM	208 nM	188 nM	198 nM	198 nM	4.23 µM	4.63 µM	4.63 µM	5.02 µM
CC(C)C[C@H]1CN([C@@H](Cc2ccccc2)CN2C(=N)NC[C@@H]2Cc2ccccc2)C(=N)N1 [1968-3]	4510 nM	4840 nM	4670 nM	4670 nM	2560 nM	2630 nM	2590 nM	2590 nM	6.37 µM	6.66 µM	6.66 µM	6.95 µM
C[C@H]1CNC(=N)N1C[C@H](Cc1ccc(O)cc1)N1C[C@H](Cc2ccccc2)NC1=N [1968-37]	3450 nM	3880 nM	3660 nM	3660 nM	749 nM	588 nM	669 nM	669 nM	3.43 µM	3.61 µM	3.61 µM	3.8 µM
Cc1cc(O)cc(C)c1C[C@H]1CN([C@@H](Cc2ccccc2)CN2C(=N)NC[C@@H]2Cc2ccc(O)cc2)C(=N)N1 [1968-20]	977 nM	659 nM	818 nM	818 nM	74.7 nM	80.3 nM	77.5 nM	77 nM	0.877 µM	0.853 µM	0.853 µM	0.829 µM
Cc1cc(O)cc(C)c1C[C@H]1CNC(=N)N1C[C@H](Cc1ccccc1)N1C[C@H](Cc2ccc(O)cc2)NC1=N [1968-50]	1900 nM	1740 nM	1820 nM	1820 nM	61.6 nM	114 nM	87.8 nM	88 nM	1.1 µM	0.896 µM	0.896 µM	0.69 µM
Cc1cc(O)cc(C)c1C[C@@H](CN1C(=N)NC[C@@H]1Cc1ccc(O)cc1)N1C[C@H](Cc2ccc(O)cc2)NC1=N [1968-30]	1730 nM	1760 nM	1740 nM	1740 nM	98.8 nM	127 nM	113 nM	113 nM	1.34 µM	1.2 µM	1.2 µM	1.07 µM
CC(C)C[C@@H](CN1C(=N)NC[C@@H]1Cc1ccccc1)N1C[C@H](Cc2ccc(O)cc2)NC1=N [1968-10]	5470 nM	4840 nM	5160 nM	5160 nM	199 nM	281 nM	240 nM	240 nM	2.23 µM	2.21 µM	2.21 µM	2.19 µM
